# According to US8592421B2, “Cyclic bioisosters of purine system derivatives and a pharmaceutical composition based thereon” (priority 2003, dated 2013):
# Marks after values point to notes of the source that are not given here.
# How the values were obtained:
# plasma hemostasis [1] = assay: Thrombin time after intravenous administration; type: in vivo, rabbit
# Procedure: (§1) The investigations were performed on 72 rabbits of the “Chinchilla” breed with a mass of 2.5±0.3 kg, who were administered which solutions of compounds 2, 15, 21, 37 in doses of 15, 30 and 60 mg/kg intravenously. The experiments included the thrombin-test (series No. 7300) and the coagulability-test (series No. 5000) purchased from the scientific-and-production association (SPA) “Renam”, thromboplastin (series No. 240600) and calcium chloride purchased from the SPA “MedioLab”
# (§2) The static parameters of the blood and plasma coagulation (partial activated thromboplastin time, thrombin time, maximum coagulation activity (test for auto coagulation) were determined using the Behnk Electronic coagulometer (Germany). The operating principle of this instrument is based on the fact that the formed blood clot breaks the contacts of the pulse counter in the flask-pin circuit, said pin permanently oscillating in a vertical plane. The moment of formation of the clot is registered by stopping the stop watch hand.
# (§3) The measurements were effected at a constant temperature of 37° C. maintained by a temperature control unit.
# The “thrombin time” characterizes the rate of transformation of fibrinogen into fibrin. It was determined by measuring the coagulation time of plasma deprived of thrombocytes under the effect of thrombin standardized by the control plasma.
# 0.2 ml of a thrombin solution was added to 0.2 ml of the test blood plasma of experimental animals, from whom the blood was taken 15, 30, 60 and 120 minutes after the intravenous administration of compounds 2, 15, 21, 37 according to the invention in doses of 15, 30, 60 mg/kg incubated for 1 minute at a temperature of 37° C. and the time of formation of clot T2 in seconds in a coagulometer of the Behnk Electronic Company (Germany).
# plasma hemostasis [2] = assay: Autocoagulation test (coagulating activity A) after intravenous administration; type: in vivo, rabbit
# Procedure: as §1, §2, §3
# Compounds 2, 15, 21, 37 according to the invention at a concentration of 15, 30 and 60 mg/kg were intravenously administered to the above experimental animals and their blood samples were taken off 15, 30, 60 and 120 minutes after the administration.
# Added to 0.2 ml of plasma obtained by centrifuging citrate blood at 1500 rev/min within 10 minutes was a glycosylate-calcium mixture (2.0 ml 0.222% CaCl2+0.1 ml of investigated citrate blood) 4, 6, 8, 10 minutes after the preparation of this mixture and the time of coagulation in the sample was determined.
# The obtained results in seconds were translated in factors of coagulating activity A in percent, which specify the state of both the coagulating and anticoagulating parts of the blood coagulating system. The results of the experiments are given in Table 7. • The effect of the compounds according to the invention on the values of coagulating activity A by the data of autocoagulation test with intravenous administration of the compounds to the rabbits
# [3] = Morphine abstinence model: nitrites/nitrates NOX− in blood plasma, liver and brain; type: in vivo, rats Wistar; details: 20.0 mg/kg intramuscularly; for Nitrites in liver: control 0.260 ± 0.023; for Nitrites in brain: Cortex of cerebrum: control 4.63 ± 0.29; for Nitrites in brain: Mesencephalon: control 5.66 ± 0.19; for Nitrites in brain: Hypothalamus: control 6.57 ± 0.50; for Nitrites in blood plasma: control 18.30 ± 2.14
# Procedure: The experiments were carried out on rats in series of 7 animals on each compound according to the invention. Non-morphinized animal with not administered with compounds according to the invention were used as a control group. […] Then the rats were decapitated, the blood from somnolent arteries was collected in test tubes with solution EDTA as an anticoagulant, centrifuged at 1500 g for 15 minutes at 4° C.
# To estimate the intensity of metabolism of nitrogen oxide in rats, quantitative determination of stable metabolites of nitrogen oxide—nitrites and nitrates NOX^− in the blood plasma, supernatanates of the liver and thymus gland, a study was conducted by a spectrometric method, and in the brain supernatanates by a […] method.
# The spectrometric method is based the reaction of nitrites with the Griss reagent (a mixture of 2% solution of sulfanilamide and 0.2% N-(1-naphthyl)ethylene diamine. At the first step the nitrite reacts with sulfanilamide with formation of diazonium salt, and then with the second component to form azo dye with an adsorption maximum at 540 nm. For reduction of nitrates into nitrites, a fermentative method was used with bacterial reductase nitrate (Grisham M. B. et al., 1995). The samples of plasma and supernathant of the liver deproteinizated at 100° C. for 5 minutes incubated for 30 minutes at 37° C. in 50.0 mM of HEPES pH 7.4 in the presence of 0.2 unit/ml of Aspergillus reductase nitrate, 5.0 mkM of FAD and 0.1 mM of NAD-Ph. At the end of the reaction lactate dehydrogenase and pyruvate were added for isolation of NAD-Ph interfering with the Griss reaction. Then the Griss reagent was added and after 10-minute incubation the light absorption of the samples was measured at 540 nm. To amount of NOX^− was calculated using sodium nitrate as a standard.
# The fluorometric method is based on calculation of the nitrite level by the intensity fluorescence of 2,3-diaminonaphthotriazole, a product of reaction of 2,3-diaminonaphthalene (DAN) and nitrite in an acidic medium (Misko T. R., Schilling R. J., Salvemini D. et al. “A fluorometric assay for the measurement of nitrite of biological samples”. Anal. Biochem., 1993, v. 214, p. 11-16). The brain supernatants deproteinizated at 100° C. were placed in a nitrite regenerating system containing 0.125 unit/ml of nitrate reductases, 25 mkM NADPh and 25 mkM FAD prepared in a 20-mM Tris-HCl buffer with pH 7.6 and incubated for 30 minutes at 37° C. The lactate dehydrogenase/pyruvate system was used for oxidation of the NADPh. Then 316 mkM of the DAN solution in 0.62 M of hydrochloric acids were added and the mixture was incubated for 10 minutes in darkness.
# 280 mM of NaOH were added for stabilization of the fluorescence of the formed 2,3-diaminonaphthotriazole. The fluorescence intensity was measured in the spectrofluorimeter Hitachi F-3000 at a wavelength of excitation of 365 nm and an emission of 405 nm. The concentration of NOX^− in the brain was calculated by means of a standard solution of sodium nitrate.
smiles,measurement,setting,value
"O=c1[nH][nH]c(=O)c2c(Br)ncnc12.[K] [Compound 37, potassium salt of 4-bromine-pyrimido[4,5-D]-6H-pyridazine-5,8-dione]","thrombin time, T2","plasma hemostasis [1]; 15.0 mg/kg intravenously, after 15 minutes, control 15.8",16.9* s
same,"thrombin time, T2","plasma hemostasis [1]; 15.0 mg/kg intravenously, after 30 minutes, control 15.8",18.2* s
same,"thrombin time, T2","plasma hemostasis [1]; 15.0 mg/kg intravenously, after 60 minutes, control 15.8",16.3* s
same,"thrombin time, T2","plasma hemostasis [1]; 15.0 mg/kg intravenously, after 120 minutes, control 15.8",15.6* s
same,"thrombin time, T2","plasma hemostasis [1]; 30.0 mg/kg intravenously, after 15 minutes, control 14.7",19.5* s
same,"thrombin time, T2","plasma hemostasis [1]; 30.0 mg/kg intravenously, after 30 minutes, control 14.7",20.3* s
same,"thrombin time, T2","plasma hemostasis [1]; 30.0 mg/kg intravenously, after 60 minutes, control 14.7",21.0* s
same,"thrombin time, T2","plasma hemostasis [1]; 30.0 mg/kg intravenously, after 120 minutes, control 14.7",15.2* s
same,"thrombin time, T2","plasma hemostasis [1]; 60.0 mg/kg intravenously, after 15 minutes, control 15.2",16.6* s
same,"thrombin time, T2","plasma hemostasis [1]; 60.0 mg/kg intravenously, after 30 minutes, control 15.2",17.8* s
same,"thrombin time, T2","plasma hemostasis [1]; 60.0 mg/kg intravenously, after 60 minutes, control 15.2",16.2* s
same,"thrombin time, T2","plasma hemostasis [1]; 60.0 mg/kg intravenously, after 120 minutes, control 15.2",15.0* s
same,coagulating activity A (autocoagulation test),"plasma hemostasis [2]; 15.0 mg/kg intravenously, after 15 minutes, control 85.6",82.1%
same,coagulating activity A (autocoagulation test),"plasma hemostasis [2]; 15.0 mg/kg intravenously, after 30 minutes, control 85.6",102.8%
same,coagulating activity A (autocoagulation test),"plasma hemostasis [2]; 15.0 mg/kg intravenously, after 60 minutes, control 85.6",88.7%
same,coagulating activity A (autocoagulation test),"plasma hemostasis [2]; 15.0 mg/kg intravenously, after 120 minutes, control 85.6",100.6%
same,coagulating activity A (autocoagulation test),"plasma hemostasis [2]; 30.0 mg/kg intravenously, after 15 minutes, control 70.0",99.8%
same,coagulating activity A (autocoagulation test),"plasma hemostasis [2]; 30.0 mg/kg intravenously, after 30 minutes, control 70.0",68.3%
same,coagulating activity A (autocoagulation test),"plasma hemostasis [2]; 30.0 mg/kg intravenously, after 60 minutes, control 70.0",105.8%
same,coagulating activity A (autocoagulation test),"plasma hemostasis [2]; 30.0 mg/kg intravenously, after 120 minutes, control 70.0",70.4%
same,coagulating activity A (autocoagulation test),"plasma hemostasis [2]; 60.0 mg/kg intravenously, after 15 minutes, control 65.9",74.3%
same,coagulating activity A (autocoagulation test),"plasma hemostasis [2]; 60.0 mg/kg intravenously, after 30 minutes, control 65.9",63.0%
same,coagulating activity A (autocoagulation test),"plasma hemostasis [2]; 60.0 mg/kg intravenously, after 60 minutes, control 65.9",64.2%
same,coagulating activity A (autocoagulation test),"plasma hemostasis [2]; 60.0 mg/kg intravenously, after 120 minutes, control 65.9",66.3%
same,effect on the coagulation activity according to the autocoagulation test,"plasma hemostasis [2]; doses 15.0, 30.0, 60.0 mg/kg",have no effect on the coagulation activity
same,Nitrites in liver,[3]; Control + Compound,0.262 ± 0.018 nmol/mg of protein
same,Nitrites in brain: Cortex of cerebrum,[3]; Control + Compound,4.36 ± 0.24 nmol/mg of protein
same,Nitrites in brain: Mesencephalon,[3]; Control + Compound,6.84 ± 0.56 nmol/mg of protein
same,Nitrites in brain: Hypothalamus,[3]; Control + Compound,6.79 ± 0.92 nmol/mg of protein
same,Nitrites in blood plasma,[3]; Control + Compound,16.13 ± 1.80 mkmol/ml
same,Nitrites in liver,[3]; Control + Morphine + compound,0.274 ± 0.01 nmol/mg of protein
same,Nitrites in brain: Cortex of cerebrum,[3]; Control + Morphine + compound,4.77 ± 0.28 nmol/mg of protein
same,Nitrites in brain: Mesencephalon,[3]; Control + Morphine + compound,5.63 ± 0.37 nmol/mg of protein
same,Nitrites in brain: Hypothalamus,[3]; Control + Morphine + compound,6.52 ± 0.83 nmol/mg of protein
same,Nitrites in blood plasma,[3]; Control + Morphine + compound,15.33 ± 0.87 mkmol/ml
"O=c1[nH][nH]c(=O)c2nccnc12.[Li] [Compound 25, lithium salt of pyrazine[2,3-d]-6H-pyridazine-5,8-dione]",Nitrites in liver,[3]; Control + Compound,0.307 ± 0.012 nmol/mg of protein
same,Nitrites in brain: Cortex of cerebrum,[3]; Control + Compound,4.47 ± 0.43 nmol/mg of protein
same,Nitrites in brain: Mesencephalon,[3]; Control + Compound,6.98 ± 1.02 nmol/mg of protein
same,Nitrites in brain: Hypothalamus,[3]; Control + Compound,6.87 ± 0.80 nmol/mg of protein
same,Nitrites in blood plasma,[3]; Control + Compound,17.10 ± 2.05 mkmol/ml
same,Nitrites in liver,[3]; Control + Morphine + compound,0.287 ± 0.01 nmol/mg of protein
same,Nitrites in brain: Cortex of cerebrum,[3]; Control + Morphine + compound,4.91 ± 0.32 nmol/mg of protein
same,Nitrites in brain: Mesencephalon,[3]; Control + Morphine + compound,5.91 ± 0.74 nmol/mg of protein
same,Nitrites in brain: Hypothalamus,[3]; Control + Morphine + compound,6.67 ± 0.79 nmol/mg of protein
same,Nitrites in blood plasma,[3]; Control + Morphine + compound,16.78 ± 2.11 mkmol/ml
